Laboratory results taken from publication PMC8050080, “Cannabis sativa terpenes are cannabimimetic and selectively enhance cannabinoid activity” (Scientific Reports, 2021).

Assays:
[1] = tested on: male and female CD-1 mice; assay: Tail flick thermal latency test (antinociception); type: in vivo; conditions: Fig. S1
Experimental: Antinociception was tested using the tail flick thermal latency test. Mice were baselined by gently restraining the animal and lowering the distal portion of the tail into a water bath set to 52 °C or 47 °C where stated, and the latency to flick the tail recorded with a stopwatch, with a 10 s cutoff. Mice were then injected with compounds intraperitoneally (i.p.). Thermal latency was then assessed over a time course of 2 h, or at a single time-point as noted. […] For assays using terpene/WIN55,212-2 co-treatment, WIN55,212-2 was co-administered with terpene in the same solution.

[2] = tested on: male and female CD-1 mice; assay: Catalepsy ring test; type: in vivo; conditions: for catalepsy vs baseline: 15 min after i.p. 200 mg/kg terpene or 5.6 mg/kg WIN55,212-2, Fig. S2B
Experimental: Potential induction of catalepsy was assessed using the ring test as described. Mice were baselined, injected with compound, and then assessed with the ring test at 15 min post-injection. Data was represented as the percentage (%) of time in a “cataleptic” immobile state over the 5 min observation period.

CB1 [3] = target: T1, CB1 (Homo sapiens, UniProt P21554); assay: biochemical; type: binding; conditions: CB1-CHO membranes; for competition for the orthosteric binding site against CP55,940: Fig. 8A
[4] = tested on: male and female CD-1 mice; assay: Hypothermia (core temperature, rectal thermometer); type: in vivo; conditions: 30 min after i.p. 200 mg/kg terpene or 5.6 mg/kg WIN55,212-2, Fig. S2A
Experimental: Changes in core temperature were assessed using a lubricated rectal thermometer placed 1.0 cm into the mouse rectum. Temperature was assessed before treatment and 30 min post-treatment.

human mu opioid receptor = target: T2, human mu opioid receptor (Homo sapiens, UniProt P35372); type: cell-based; conditions: 500 μM terpene or 10 μM morphine, 5 min, Fig. S13A
T2 construct: host or cells: CHO (MOR-CHO)
Experimental: Cells were plated in 6-well plates 24 h prior to the start of the experiments. Cells were serum starved for 1 h then treated for 5 min with compound. In antagonist experiments, cells were pretreated for 5 min before agonist treatment for 5 min. […] Cells were scraped and collected. Lysates were vortexed then centrifuged at 13 k rpm at 4 °C for 10 min. Lysates were then processed for Western blots or stored at − 80 °C.
CHO cells were serum starved for 1 hr, then treated with Vehicle, 10 μM morphine, or 500
μM terpene for 5 min. ERK was quantitated and reported as above. Data expressed as the
vs. Vehicle group by 1 Way ANOVA with Dunnett’s post hoc test. B) MOR-CHO cells
serum starved for 1 hr, then pre-treated with Vehicle or 10 μM naloxone for 10 min, then
treated with Vehicle, 10 μM morphine, or 500 μM terpene for 5 min. ERK quantitated,
reported, and normalized as in A (n=3 independent experiments). *, **** = p < 0.05,
0.0001 vs. terpene-alone group for each set by 1 Way ANOVA with Sidak’s post hoc test
(set up as pairwise comparisons between terpene and terpene + naloxone for each set). For
both, representative blots are shown below each graph.

CB1 [5] = target: T1, CB1; type: cell-based; design: expressed in transfected cells; host or cells: CHO (CB1-CHO-βarr2 / CB1-CHO-DX), gift from Dr. Robert Laprairie; conditions: Fig. S14C
WT CHO cells = assay: ERK phosphorylation (Western) in WT CHO cells; type: cell-based; conditions: for ERK phosphorylation in WT CHO cells: 500 μM terpene or 10 μM WIN55,212-2, 5 min, Fig. 7B
Experimental: WT-CHO cells were obtained from ATCC (#CCL-61). CHO cells stably expressing the human CB1 receptor were obtained from PerkinElmer (#ES-110-C) and utilized for western blots (CB1-CHO-C2) or binding assays (CB1-CHO-C3). HitHunter (CB1-CHO-cAMP) and PathHunter (CB-CHO-βarr2) assays were performed on respective CB1-CHO lines, and were a kind gift from Dr. Robert Laprairie[44]. CHO cells stably expressing cloned CB2 (CB2-CHO) were produced by electroporation with the human CB2 N-3xHA tag cDNA (GeneCopoeia). A stable expressing population was selected for with 500 μg/mL G418. CHO cells stably expressing the human mu opioid receptor were obtained from PerkinElmer (#ES-542-C). All cells were grown on 10 cm dishes in DMEM/F-12 50/50 mix w/ L-glutamine and 15 mM HEPES (Corning) containing 10% heat-inactivated fetal bovine serum, 100 units/mL penicillin, 100 units/mL streptomycin, and 400 μg/mL G418 (CB1-CHO-C2, CB1-CHO-C3, CB2-CHO, MOR-CHO); 800 μg/mL G418 (CB1-CHO-cAMP); 800 μg/mL G418 and 300 μg/mL hygromycin B (CB1-CHO-βarr2). WT CHO were grown as stated above without selection antibiotic. Cells were incubated in a humidified incubator at 37 °C with 5% CO2 and were sub-cultured every 2–3 days.
Cells were plated in 6-well plates 24 h prior to the start of the experiments. Cells were serum starved for 1 h then treated for 5 min with compound. In antagonist experiments, cells were pretreated for 5 min before agonist treatment for 5 min. Media was then aspirated, cells were placed on ice, washed with ice-cold PBS once, and lysis buffer (20 mM Tris–HCl, pH 7.4, 150 mM NaCl, 2 mM EDTA, 0.1% SDS, 1% Nonidet P-40, 0.25% deoxycholate, 1 mM sodium orthovanadate, 1 mM PMSF, 1 mM sodium fluoride, and a protease inhibitor cocktail (EMD Millipore)), was added. Cells were scraped and collected. Lysates were vortexed then centrifuged at 13 k rpm at 4 °C for 10 min. Lysates were then processed for Western blots or stored at − 80 °C.
Cell lysate protein was quantified with a modified BCA protein assay using manufacturers protocol (Bio-Rad). Samples (20–30 μg) were ran on precast gels (10% Bis–Tris, Bolt brand, from ThermoFisher). Gels were wet-transferred to nitrocellulose membranes at 30 V for at least 60 min at 4 °C. Blots were blocked with 5% non-fat dry milk in TBS for 30 min, washed 3 × for 5 min with TBS + 0.1% Tween-20 (TBST), and incubated with primary antibody overnight at 4 °C. Primary antibody: pERK and tERK (Cell Signaling) at 1:1000 dilution in 5% BSA in TBST. Blots were then washed 3 × with TBST then incubated with secondary antibodies for 90 min at room temperature. Secondary antibodies: Goat anti-Rabbit 800 W and Goat anti-Mouse 680 diluted at 1:10,000 and 1:20,000 (Licor), respectively, in 5% non-fat milk in TBST. Blots were washed 3X with TBST and 1 × with TBS, then imaged on a Licor Odyssey Fc or Azure Sapphire. Bands were analyzed using Image-J and reported as pERK/tERK normalized to the standard, or simply as pERK/tERK.

[6] = tested on: male and female CD-1 mice; assay: Open field test (hypolocomotion); conditions: for distance traveled and mobile time, experiment without baseline recording: vs Vehicle, Fig. S3A,B
Experimental: All experiments were performed on male and female CD-1 (a.k.a. ICR) mice obtained from Charles River in age-matched cohorts of 5–6 weeks of age. […] The animals were maintained in an AAALAC-accredited vivarium at the University of Arizona in temperature and humidity-controlled rooms on a 12-h light/dark cycle. Standard chow and water were available ad libitum. […] Mice were randomized to treatment group by randomization of mice to cages upon arrival, and block random assignment of cages to treatment group. The experimenter was blinded to treatment group by the delivery of coded drug vials. The groups were not decoded until all data had been acquired.
The open field test was used to determine potential hypolocomotive properties induced by terpene and cannabinoid treatment. The open field box was a white box with an open top and black floor. The tracking area was 30 cm × 28 cm. Mice were baselined by placing the mouse in the center of the box and recording from a video camera ~ 1.5 m above for a period of 5 min. Mice were then injected with compound and placed back in the open field box 10–15 min post-injection. In follow-up experiments, mice were not baselined, injected with compound, and placed in the open field box from 10 to 15 min. The total distance traveled and mobile time of mice were analyzed using AnyMaze software.

[7] = tested on: male and female CD-1 mice; assay: Cannabinoid tetrad of behaviors (antinociception, hypolocomotion, catalepsy, hypothermia); type: in vivo; conditions: 200 mg/kg terpene i.p. (β-Caryophyllene control)
Description: Our first set of experiments sought to determine whether selected terpenes/terpenoids (α-Humulene, β-Pinene, Linalool [terpenoid], Geraniol [terpenoid], and β-Caryophyllene as a putative cannabinoid receptor type 2 [CB2] agonist control) had activity in the cannabinoid tetrad of behaviors mediated by the CB1 receptor: antinociception, hypolocomotion, catalepsy, and hypothermia. These terpenes were selected based on their quantities in Cannabis sativa, with α-Humulene, β-Pinene, Linalool, and β-Caryophyllene all being found in higher quantities and Geraniol in lower to underdetermined quantities. Although it is not clear if geraniol is present in higher quantities, we nonetheless chose this ligand due to its reported anti-nociceptive activity (e.g.[22]). Terpenes were administered at several doses (50–200 mg/kg) i.p. and assessed in the tail flick assay in male and female CD-1 mice. […]
Antinociception was tested using the tail flick thermal latency test. Mice were baselined by gently restraining the animal and lowering the distal portion of the tail into a water bath set to 52 °C or 47 °C where stated, and the latency to flick the tail recorded with a stopwatch, with a 10 s cutoff. […] Thermal latency was then assessed over a time course of 2 h, or at a single time-point as noted. […]
Potential induction of catalepsy was assessed using the ring test as described. […]

CB1 [8] = target: T1, CB1; type: cell-based; conditions: varying concentrations, 5 min, Fig. 6
Experimental: WT-CHO cells were obtained from ATCC (#CCL-61). […] CHO cells stably expressing cloned CB2 (CB2-CHO) were produced by electroporation with the human CB2 N-3xHA tag cDNA (GeneCopoeia). A stable expressing population was selected for with 500 μg/mL G418. […] All cells were grown on 10 cm dishes in DMEM/F-12 50/50 mix w/ L-glutamine and 15 mM HEPES (Corning) containing 10% heat-inactivated fetal bovine serum, 100 units/mL penicillin, 100 units/mL streptomycin, and 400 μg/mL G418 (CB1-CHO-C2, CB1-CHO-C3, CB2-CHO, MOR-CHO); 800 μg/mL G418 (CB1-CHO-cAMP); 800 μg/mL G418 and 300 μg/mL hygromycin B (CB1-CHO-βarr2). WT CHO were grown as stated above without selection antibiotic. Cells were incubated in a humidified incubator at 37 °C with 5% CO2 and were sub-cultured every 2–3 days.
Cells were plated in 6-well plates 24 h prior to the start of the experiments. Cells were serum starved for 1 h then treated for 5 min with compound. In antagonist experiments, cells were pretreated for 5 min before agonist treatment for 5 min. […] Cells were scraped and collected. Lysates were vortexed then centrifuged at 13 k rpm at 4 °C for 10 min. […]
Cell lysate protein was quantified with a modified BCA protein assay using manufacturers protocol (Bio-Rad). […] Bands were analyzed using Image-J and reported as pERK/tERK normalized to the standard, or simply as pERK/tERK.

[9] = 200 mg/kg terpene or 5.6 mg/kg WIN55,212-2 i.p.

T1 sequence (P21554 whole entry): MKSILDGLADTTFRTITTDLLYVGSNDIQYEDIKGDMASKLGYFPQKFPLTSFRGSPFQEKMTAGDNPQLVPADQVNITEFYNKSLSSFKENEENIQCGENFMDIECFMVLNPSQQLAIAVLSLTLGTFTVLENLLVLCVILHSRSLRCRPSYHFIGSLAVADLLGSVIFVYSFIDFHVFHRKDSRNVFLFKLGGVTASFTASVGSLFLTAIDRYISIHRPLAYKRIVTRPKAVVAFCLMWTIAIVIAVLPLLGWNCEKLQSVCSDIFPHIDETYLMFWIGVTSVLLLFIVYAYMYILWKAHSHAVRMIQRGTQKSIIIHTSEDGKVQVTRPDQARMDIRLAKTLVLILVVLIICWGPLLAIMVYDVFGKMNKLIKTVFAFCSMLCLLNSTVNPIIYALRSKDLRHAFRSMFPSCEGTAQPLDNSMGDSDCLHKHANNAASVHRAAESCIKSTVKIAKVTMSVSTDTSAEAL
T2 sequence (P35372 whole entry): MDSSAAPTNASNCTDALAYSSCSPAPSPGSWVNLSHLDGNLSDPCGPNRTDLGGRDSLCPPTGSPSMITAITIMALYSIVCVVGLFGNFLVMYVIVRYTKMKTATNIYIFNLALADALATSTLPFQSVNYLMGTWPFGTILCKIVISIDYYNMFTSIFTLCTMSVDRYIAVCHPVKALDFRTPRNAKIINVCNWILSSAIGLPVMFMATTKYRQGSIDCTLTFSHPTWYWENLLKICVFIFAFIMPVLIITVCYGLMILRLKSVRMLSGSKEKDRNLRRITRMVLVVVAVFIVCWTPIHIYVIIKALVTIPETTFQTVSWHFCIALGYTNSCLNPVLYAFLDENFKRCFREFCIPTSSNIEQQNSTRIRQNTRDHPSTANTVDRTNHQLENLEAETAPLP

Structure (SMILES) | efficacy in the tail flick assay ([1]; terpene 50–200 mg/kg i.p., dose-dependent) | effect of istradefyllene pretreatment on catalepsy response ([2]; 10 mg/kg istradefyllene, 200 mg/kg terpene, Fig. 4) | effect of rimonabant pretreatment on catalepsy response ([2]; 10 mg/kg rimonabant, 200 mg/kg terpene, Fig. 4) | catalepsy vs baseline [2] | competition for the orthosteric binding site against CP55,940 (CB1 [3]) | IC50 (CB1 [3]; mean (95% CI), n = 5, Fig. 8A, read-out: IC50, competition binding against 3H-CP55,940) [µM] | hypothermia vs baseline [4] | ERK stimulation in MOR-CHO cells (human mu opioid receptor) | effect of a full dose-range of Geraniol on WIN55,212-2 βarrestin2 recruitment (CB1 [5]) | ERK phosphorylation in WT CHO cells (WT CHO cells) | effect of istradefyllene pretreatment on mobile time ([6]; 10 mg/kg istradefyllene, 200 mg/kg terpene, Fig. 5) | effect of istradefyllene pretreatment on distance traveled ([6]; 10 mg/kg istradefyllene, 200 mg/kg terpene, Fig. S7) | locomotor activity vs baseline ([6]; 200 mg/kg terpene or 5.6 mg/kg WIN55,212-2 i.p., compared to baseline values, Fig. S2C,D, confounded by habituation) | distance traveled and mobile time, experiment without baseline recording [6, 9] | tail flick antinociception (efficacy in words) ([1]; terpenes 50–200 mg/kg i.p. (β-Caryophyllene 100 mg/kg), WIN55,212-2 up to 10 mg/kg, over 2 h) | number of classic cannabinoid tetrad behaviors induced (out of 4) [7] | rimonabant sensitivity of ERK activation in WT CHO cells (WT CHO cells; 500 μM terpene after 10 μM rimonabant, Fig. 7C) | ERK activation in CB1-CHO cells (CB1 [8])
CC(C)=CCC/C(C)=C/CO [Geraniol] | 40–50% | partially blocked | no impact | significant increases in cataleptic behavior | full competition | 44.2 | induced significant hypothermia | no response | dose-dependent reductions in WIN55,212-2 recruitment | did not cause ERK phosphorylation | significant reversal | istradefyllene reversal | significant reductions in locomotor activity | reductions in distance traveled and mobile time | – | – | – | –
C=C1CC/C=C(\C)CC[C@@H]2[C@@H]1CC2(C)C [β-Caryophyllene, reference compound] | – | – | – | did not induce | some competition and semi-biphasic properties | – | did not induce | produced ERK stimulation | – | activated ERK | – | – | – | did not result in significant reductions | low efficacy | did not | rimonabant-insensitive | activated downstream ERK signaling
